Data: ChEMBL document CHEMBL4340507, “Identification of an indol-based multi-target kinase inhibitor through phenotype screening and target fishing using inverse virtual screening approach” (Eur J Med Chem, 2019)
pIC50: −log10 of the molar value. Activity calls are given as the source filed them. The calls are words filed in the database; no cut-off is given here.

Columns and labels:
[1] = tested on: HeLa; assay: Antiproliferative activity against human HeLa cells assessed as decrease in cell viability measured after 72 hrs by MTT assay; type: functional, cell-based
[2] = target: Fibroblast growth factor receptor 3 (Homo sapiens, UniProt P22607); assay: Inhibition of recombinant human wild-type N-terminal GST-His6-fused FGFR3 C-terminal domain (R397 to T806 residues) expressed in Sf9 insect cells using TRK-C derived peptide as substrate measured after 60 mins in presence of [gamma-33P]-ATP by scintillation counting method
Fibroblast growth factor receptor 3, sequence (P22607 whole entry, the tested form may be a part): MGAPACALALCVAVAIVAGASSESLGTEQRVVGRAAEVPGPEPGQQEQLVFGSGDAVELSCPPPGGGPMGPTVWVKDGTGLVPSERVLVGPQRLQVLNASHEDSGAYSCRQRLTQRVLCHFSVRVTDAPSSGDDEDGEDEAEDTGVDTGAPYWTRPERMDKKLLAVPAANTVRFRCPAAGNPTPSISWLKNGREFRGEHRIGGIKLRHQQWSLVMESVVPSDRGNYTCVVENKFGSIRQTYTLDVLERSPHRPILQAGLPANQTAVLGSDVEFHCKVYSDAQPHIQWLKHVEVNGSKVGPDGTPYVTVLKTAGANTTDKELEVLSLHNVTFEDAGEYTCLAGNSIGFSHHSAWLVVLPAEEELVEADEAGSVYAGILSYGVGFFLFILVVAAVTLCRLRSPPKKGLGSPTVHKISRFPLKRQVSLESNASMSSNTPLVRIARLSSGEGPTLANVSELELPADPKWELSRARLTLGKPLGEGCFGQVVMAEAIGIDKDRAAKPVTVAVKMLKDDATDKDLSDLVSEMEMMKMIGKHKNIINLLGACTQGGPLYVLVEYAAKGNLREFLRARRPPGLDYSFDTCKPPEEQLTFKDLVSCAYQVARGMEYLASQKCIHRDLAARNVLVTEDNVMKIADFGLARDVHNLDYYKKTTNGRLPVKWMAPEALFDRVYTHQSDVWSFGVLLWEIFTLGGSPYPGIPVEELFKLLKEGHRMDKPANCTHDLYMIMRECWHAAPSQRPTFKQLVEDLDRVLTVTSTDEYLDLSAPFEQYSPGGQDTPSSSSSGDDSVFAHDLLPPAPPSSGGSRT

[3] = target: Epidermal growth factor receptor (Homo sapiens, UniProt P00533); assay: Inhibition of recombinant human wild-type N-terminal GST-His6-fused EGFR C-terminal domain (H672 to A1210) expressed in Sf9 insect cells using Poly(Glu:Tyr)4:1 as substrate measured after 60 mins in presence of [gamma-33P]-ATP by scintillation counting method
Epidermal growth factor receptor, sequence (P00533 whole entry, the tested form may be a part): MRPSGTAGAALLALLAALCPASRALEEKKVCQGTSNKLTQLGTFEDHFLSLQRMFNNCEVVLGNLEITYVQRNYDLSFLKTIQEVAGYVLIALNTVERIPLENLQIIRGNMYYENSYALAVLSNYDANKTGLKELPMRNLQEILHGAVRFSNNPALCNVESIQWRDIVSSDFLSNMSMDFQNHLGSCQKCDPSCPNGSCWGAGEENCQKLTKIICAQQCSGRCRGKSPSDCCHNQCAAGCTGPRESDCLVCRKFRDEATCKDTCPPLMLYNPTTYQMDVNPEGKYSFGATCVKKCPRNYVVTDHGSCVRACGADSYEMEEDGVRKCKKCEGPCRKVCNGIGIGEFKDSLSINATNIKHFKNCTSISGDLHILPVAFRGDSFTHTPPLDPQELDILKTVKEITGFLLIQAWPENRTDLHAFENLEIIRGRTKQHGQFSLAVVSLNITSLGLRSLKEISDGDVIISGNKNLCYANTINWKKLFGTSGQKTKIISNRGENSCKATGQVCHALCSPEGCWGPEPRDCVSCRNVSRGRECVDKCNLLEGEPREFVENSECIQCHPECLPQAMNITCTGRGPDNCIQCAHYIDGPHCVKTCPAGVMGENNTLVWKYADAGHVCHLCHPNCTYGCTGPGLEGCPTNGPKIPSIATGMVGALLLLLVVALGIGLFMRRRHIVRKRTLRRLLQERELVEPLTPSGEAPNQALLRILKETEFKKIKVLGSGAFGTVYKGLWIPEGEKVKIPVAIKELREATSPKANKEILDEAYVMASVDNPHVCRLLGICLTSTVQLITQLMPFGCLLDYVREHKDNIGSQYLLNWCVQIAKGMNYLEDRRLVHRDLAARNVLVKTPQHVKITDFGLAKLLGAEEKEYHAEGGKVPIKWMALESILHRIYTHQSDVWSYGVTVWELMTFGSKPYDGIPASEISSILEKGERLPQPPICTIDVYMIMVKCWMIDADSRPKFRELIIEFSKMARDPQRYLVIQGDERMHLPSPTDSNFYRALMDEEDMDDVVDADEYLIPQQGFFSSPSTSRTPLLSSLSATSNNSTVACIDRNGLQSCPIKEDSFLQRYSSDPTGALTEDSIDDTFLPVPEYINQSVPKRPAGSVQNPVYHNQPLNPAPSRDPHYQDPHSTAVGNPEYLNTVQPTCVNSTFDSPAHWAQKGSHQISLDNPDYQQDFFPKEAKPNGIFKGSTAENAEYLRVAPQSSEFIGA

[4] = target: Dual specificity protein kinase CLK1 (Homo sapiens, UniProt P49759); assay: Inhibition of recombinant human full-length N-terminal GST-His6-fused CLK1 (M1 to I484 residues) expressed in Sf9 cells using RS-peptide as substrate measured after 60 mins in presence of [gamma-33P]-ATP by scintillation counting method
[5] = target: High affinity nerve growth factor receptor (Homo sapiens, UniProt P04629); assay: Inhibition of recombinant human wild-type N-terminal GST-His6-fused TRKA C-terminal domain (G443 to G796 residues) expressed in Sf9 insect cells using TRK-C derived peptide as substrate measured after 60 mins in presence of [gamma-33P]-ATP by scintillation counting method
High affinity nerve growth factor receptor, sequence (P04629 whole entry, the tested form may be a part): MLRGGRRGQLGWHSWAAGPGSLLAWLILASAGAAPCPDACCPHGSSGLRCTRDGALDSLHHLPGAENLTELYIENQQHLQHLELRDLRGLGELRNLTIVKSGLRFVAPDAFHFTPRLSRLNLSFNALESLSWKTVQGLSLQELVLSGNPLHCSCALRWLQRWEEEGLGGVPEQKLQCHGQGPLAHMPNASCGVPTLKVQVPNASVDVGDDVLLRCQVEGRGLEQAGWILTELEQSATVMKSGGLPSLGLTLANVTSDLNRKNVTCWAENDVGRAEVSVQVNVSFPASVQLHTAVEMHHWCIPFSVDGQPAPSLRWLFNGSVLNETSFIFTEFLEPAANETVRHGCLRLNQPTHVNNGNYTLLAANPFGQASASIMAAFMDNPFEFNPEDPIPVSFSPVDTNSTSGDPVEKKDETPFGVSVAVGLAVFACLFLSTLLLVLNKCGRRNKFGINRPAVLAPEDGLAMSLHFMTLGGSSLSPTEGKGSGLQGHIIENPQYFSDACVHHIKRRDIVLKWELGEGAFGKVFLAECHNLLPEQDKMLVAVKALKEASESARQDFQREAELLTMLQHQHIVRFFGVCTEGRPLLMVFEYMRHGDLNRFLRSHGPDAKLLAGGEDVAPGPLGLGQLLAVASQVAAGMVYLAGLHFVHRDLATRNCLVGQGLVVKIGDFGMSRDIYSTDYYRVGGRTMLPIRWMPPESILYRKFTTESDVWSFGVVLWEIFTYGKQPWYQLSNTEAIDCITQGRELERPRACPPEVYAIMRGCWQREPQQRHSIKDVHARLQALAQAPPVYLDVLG

[6] = target: Rho-associated protein kinase 1 (Homo sapiens, UniProt Q13464); assay: Inhibition of recombinant human ROCK1 measured after 60 mins in presence of [gamma-33P]-ATP by scintillation counting method
Rho-associated protein kinase 1, sequence (Q13464 whole entry, the tested form may be a part): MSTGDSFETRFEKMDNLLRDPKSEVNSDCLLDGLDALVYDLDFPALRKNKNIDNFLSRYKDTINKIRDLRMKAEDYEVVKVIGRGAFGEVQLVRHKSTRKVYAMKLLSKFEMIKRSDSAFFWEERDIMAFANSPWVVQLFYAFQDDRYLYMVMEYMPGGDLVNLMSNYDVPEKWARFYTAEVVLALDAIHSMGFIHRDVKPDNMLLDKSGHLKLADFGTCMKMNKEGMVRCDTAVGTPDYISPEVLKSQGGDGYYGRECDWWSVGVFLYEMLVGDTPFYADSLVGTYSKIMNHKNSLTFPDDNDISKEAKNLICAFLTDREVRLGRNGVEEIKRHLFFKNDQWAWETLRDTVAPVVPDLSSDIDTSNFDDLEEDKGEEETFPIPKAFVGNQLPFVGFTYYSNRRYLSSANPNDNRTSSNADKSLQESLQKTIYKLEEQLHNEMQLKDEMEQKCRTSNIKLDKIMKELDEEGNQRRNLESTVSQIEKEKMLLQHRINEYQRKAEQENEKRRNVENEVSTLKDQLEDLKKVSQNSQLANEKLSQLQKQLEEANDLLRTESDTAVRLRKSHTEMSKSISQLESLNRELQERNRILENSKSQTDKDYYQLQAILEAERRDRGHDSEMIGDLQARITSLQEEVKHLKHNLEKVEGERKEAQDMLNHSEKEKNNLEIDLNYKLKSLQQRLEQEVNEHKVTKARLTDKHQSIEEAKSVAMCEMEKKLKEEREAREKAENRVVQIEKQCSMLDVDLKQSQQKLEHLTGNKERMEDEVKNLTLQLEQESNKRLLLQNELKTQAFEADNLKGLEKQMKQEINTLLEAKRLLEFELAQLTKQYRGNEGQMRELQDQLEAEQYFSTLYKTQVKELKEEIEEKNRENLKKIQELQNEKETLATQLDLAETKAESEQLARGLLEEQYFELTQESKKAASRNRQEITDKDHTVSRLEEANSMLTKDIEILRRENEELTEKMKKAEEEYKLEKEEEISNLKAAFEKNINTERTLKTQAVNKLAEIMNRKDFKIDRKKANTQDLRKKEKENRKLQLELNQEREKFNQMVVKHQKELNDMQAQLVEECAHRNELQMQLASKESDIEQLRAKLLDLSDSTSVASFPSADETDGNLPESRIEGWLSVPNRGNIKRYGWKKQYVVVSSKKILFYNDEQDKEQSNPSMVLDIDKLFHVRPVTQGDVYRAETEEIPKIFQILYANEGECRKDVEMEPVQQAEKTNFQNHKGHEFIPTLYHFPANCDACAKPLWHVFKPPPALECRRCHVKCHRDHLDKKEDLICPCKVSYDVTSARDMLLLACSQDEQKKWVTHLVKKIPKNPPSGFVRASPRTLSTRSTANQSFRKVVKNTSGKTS

[7] = target: Tyrosine-protein kinase ABL1 (Homo sapiens, UniProt P00519); assay: Inhibition of recombinant human wild-type N-terminal GST-His6-fused ABL1 internal domain (P118 to S535 residues) expressed in Sf9 insect cells using Poly(Ala,Glu,Lys,Tyr)6:2:5:1 as substrate measured after 60 mins in presence of [gamma-33P]-ATP by scintillation counting method
[8] = target: Serine/threonine-protein kinase Chk2 (Homo sapiens, UniProt O96017); assay: Inhibition of recombinant human CHK2 measured after 60 mins in presence of [gamma-33P]-ATP by scintillation counting method
Serine/threonine-protein kinase Chk2, sequence (O96017 whole entry, the tested form may be a part): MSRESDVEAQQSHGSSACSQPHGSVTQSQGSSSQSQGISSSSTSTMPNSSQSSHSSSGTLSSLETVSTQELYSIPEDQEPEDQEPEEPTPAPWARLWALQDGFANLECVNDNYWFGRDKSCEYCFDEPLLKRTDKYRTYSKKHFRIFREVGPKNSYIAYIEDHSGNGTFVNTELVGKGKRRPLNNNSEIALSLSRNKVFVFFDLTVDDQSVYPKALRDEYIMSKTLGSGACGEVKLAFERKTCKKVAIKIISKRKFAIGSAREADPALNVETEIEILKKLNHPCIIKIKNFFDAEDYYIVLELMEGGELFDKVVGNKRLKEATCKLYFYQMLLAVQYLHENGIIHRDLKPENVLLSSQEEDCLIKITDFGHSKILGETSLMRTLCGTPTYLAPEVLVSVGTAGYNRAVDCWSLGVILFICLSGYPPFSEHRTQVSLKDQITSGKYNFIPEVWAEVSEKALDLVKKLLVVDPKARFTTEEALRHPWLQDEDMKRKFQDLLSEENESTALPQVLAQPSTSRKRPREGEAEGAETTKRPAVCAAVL

[9] = target: Mitogen-activated protein kinase 14 (Homo sapiens, UniProt Q16539); assay: Inhibition of recombinant human full-length untagged p38-alpha (M1 to S360 residues) expressed in Escherichia coli cells using recombinant ATF2 as substrate measured after 60 mins in presence of [gamma-33P]-ATP by scintillation counting method
Mitogen-activated protein kinase 14, sequence (Q16539 whole entry, the tested form may be a part): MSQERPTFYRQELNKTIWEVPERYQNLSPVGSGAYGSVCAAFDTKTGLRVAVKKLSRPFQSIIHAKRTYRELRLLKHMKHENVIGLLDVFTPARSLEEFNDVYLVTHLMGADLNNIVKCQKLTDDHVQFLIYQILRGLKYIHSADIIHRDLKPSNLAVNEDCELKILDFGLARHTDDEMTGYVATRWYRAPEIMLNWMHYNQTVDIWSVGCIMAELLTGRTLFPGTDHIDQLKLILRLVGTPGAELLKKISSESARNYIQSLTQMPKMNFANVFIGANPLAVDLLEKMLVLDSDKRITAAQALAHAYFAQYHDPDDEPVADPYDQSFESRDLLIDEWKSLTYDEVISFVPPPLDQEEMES

[10] = tested on: IEC-6; assay: Cell cycle arrest in rat IEC-6 cells assessed as decrease in accumulation at G2-phase at 0.1 to 0.6 uM after 24 hrs by propidium iodide staining-based FACS analysis; type: ADME; settings: iec-6, 24 h
[11] = tested on: HeLa; assay: Down regulation of ERK expression in human HeLa cells at 0.1 to 0.6 uM after 24 hrs by FACS analysis; type: functional, cell-based

pIC50 [1]: 6.48 | pIC50 [2]: 5.20 | pIC50 [3]: 5.00 | pIC50 [4]: 4.89 | pIC50 [5]: 4.80 | pIC50 [6]: 4.46 | pIC50 [7]: 4.16 | pIC50 [8]: 4.10 | pIC50 [9]: 4.06
SMILES: CN(CCc1ccc(-c2ccccc2)cc1)Cc1cn(C)c2ccc(C(=O)Nc3ccc(F)cc3)cc12
Activity [10]: Toxic | Activity [11]: Active
